Reference: patent US8399676B2, “Piperidine derivatives” (Hoffman-La Roche Inc., priority 2009, dated 2013)
pIC50: −log10 of the molar value. Where a name gives a salt, the structure may show the parent alone.

What follows are compounds tested against T1, human HSL (Homo sapiens, UniProt Q05469) (assay: Human Hormone-Sensitive Lipase (HSL) enzyme inhibition assay (colorimetric, DMPT substrate)). Details: read-out: HSL hum IC50.
T1 construct: generate a full length human HSL ORF with a 3′-His6 tag; His6 (C); made in house; host or cells: High 5 insect cells (baculovirus, pFast-BAC)
T1 sequence (Q05469 1-1076): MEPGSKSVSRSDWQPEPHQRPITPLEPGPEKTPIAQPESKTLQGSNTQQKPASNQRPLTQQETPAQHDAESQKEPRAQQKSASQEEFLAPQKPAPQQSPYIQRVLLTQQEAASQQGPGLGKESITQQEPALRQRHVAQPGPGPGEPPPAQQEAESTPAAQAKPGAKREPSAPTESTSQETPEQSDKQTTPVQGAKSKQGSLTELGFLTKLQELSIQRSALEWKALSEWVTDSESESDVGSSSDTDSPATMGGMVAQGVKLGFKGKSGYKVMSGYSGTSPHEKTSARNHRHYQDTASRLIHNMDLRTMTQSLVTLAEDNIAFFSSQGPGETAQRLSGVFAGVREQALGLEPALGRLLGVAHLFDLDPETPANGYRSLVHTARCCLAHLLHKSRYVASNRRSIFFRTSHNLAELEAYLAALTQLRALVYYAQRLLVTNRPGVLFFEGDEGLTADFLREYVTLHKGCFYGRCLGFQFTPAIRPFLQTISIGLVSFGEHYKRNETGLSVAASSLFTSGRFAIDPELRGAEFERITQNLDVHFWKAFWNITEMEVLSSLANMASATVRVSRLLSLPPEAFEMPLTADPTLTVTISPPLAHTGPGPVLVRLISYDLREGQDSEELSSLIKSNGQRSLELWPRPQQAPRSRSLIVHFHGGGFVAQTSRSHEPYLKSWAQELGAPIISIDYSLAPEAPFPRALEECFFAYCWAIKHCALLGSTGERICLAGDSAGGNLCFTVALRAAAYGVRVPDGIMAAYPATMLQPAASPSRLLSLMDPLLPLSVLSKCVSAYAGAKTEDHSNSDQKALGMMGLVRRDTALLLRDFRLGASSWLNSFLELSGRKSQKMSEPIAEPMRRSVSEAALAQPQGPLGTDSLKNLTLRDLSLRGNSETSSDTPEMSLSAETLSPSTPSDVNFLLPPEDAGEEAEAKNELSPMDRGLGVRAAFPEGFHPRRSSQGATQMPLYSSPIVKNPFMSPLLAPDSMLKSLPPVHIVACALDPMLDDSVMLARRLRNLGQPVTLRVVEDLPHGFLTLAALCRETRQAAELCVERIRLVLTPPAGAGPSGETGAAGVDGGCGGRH
Format: biochemical
How it was run: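 Full-length human HSL carrying a C-terminal His6 tag was expressed in High 5 insect cells via baculovirus and purified on Ni-NTA. Compounds from 3-fold DMSO series were mixed with 1.5 mM DMPT substrate suspension in 100 mM MOPS pH 7.2 with 0.2 mg/ml fatty acid-free BSA, then enzyme (15 ug/ml) was added for 20 minutes at 37 °C. Released thiol was detected with DTNB plus SDS/Triton X-100 (15 minutes, room temperature) at 405 nm.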

CNC1(C(=O)Nc2ccc(OC(F)(F)F)cc2)CCN(S(=O)(=O)c2ccc(C)cc2)CC1 [Example 160, 4-Methylamino-1-(toluene-4-sulfonyl)-piperidine-4-carboxylic acid (4-trifluoromethoxy-phenyl)-amide] and Cc1ccccc1S(=O)(=O)N1CCC(O)(C(=O)N(C)c2ccc(OC(F)(F)F)cc2)CC1 [Example 68, 4-Hydroxy-1-(toluene-2-sulfonyl)-piperidine-4-carboxylic acid methyl-(4-trifluoromethoxy-phenyl)-amide] are the same in pIC50: 7.00 for the first, 7.00 for the second.

First: CN(C(=O)C1(O)CCN(S(=O)(=O)c2ccccc2Cl)CC1)c1ccc(OC(F)(F)F)cc1 [Example 72, 1-(2-Chloro-benzenesulfonyl)-4-hydroxy-piperidine-4-carboxylic acid methyl-(4-trifluoromethoxy-phenyl)-amide]
Second: CN(C(=O)C1(O)CCN(S(=O)(=O)c2ccccc2C(F)(F)F)CC1)c1ccc(OC(F)(F)F)cc1 [Example 73, 4-Hydroxy-1-(2-trifluoromethyl-benzenesulfonyl)-piperidine-4-carboxylic acid methyl-(4-trifluoromethoxy-phenyl)-amide]
The pIC50 of the first is 0.22 log units higher: 7.22 for the first, 7.00 for the second. The first is the more potent here.

Compared with CCc1ccc(NC(=O)C2(N)CCN(S(=O)(=O)c3ccccc3)CC2)cc1 [Example 133, 4-Amino-1-benzenesulfonyl-piperidine-4-carboxylic acid (4-ethyl-phenyl)-amide], CCc1ccc(NC(=O)C2(N)CCN(S(=O)(=O)c3ccccc3S(C)(=O)=O)CC2)cc1 [Example 136, 4-Amino-1-(2-methanesulfonyl-benzenesulfonyl)-piperidine-4-carboxylic acid (4-ethyl-phenyl)-amide] is 0.84 log units lower in pIC50: 7.05 for the first, 6.21 for the second. The first is the more potent here.

CC(C)Oc1ccc(NC(=O)C2(O)CCN(Cc3ccc(OC(F)(F)F)cc3)CC2)cc1 [Example 14, 4-Hydroxy-1-(4-trifluoromethoxy-benzyl)-piperidine-4-carboxylic acid (4-isopropoxy-phenyl)-amide] and O=C(c1ccc(F)cc1)N1CCC(O)(C(=O)Nc2ccc(OC(F)(F)F)cc2)CC1 [Example 11, 1-(4-Fluoro-benzoyl)-4-hydroxy-piperidine-4-carboxylic acid (4-trifluoromethoxy-phenyl)-amide] are within 0.2 log units of each other in pIC50: 6.22 for the first, 6.26 for the second.

Going from CC(C)c1ccc(NC(=O)C2(O)CCN(C(=O)CC(C)(C)C)CC2)cc1 [Example 4, 1-(3,3-Dimethyl-butyryl)-4-hydroxy-piperidine-4-carboxylic acid (4-isopropyl-phenyl)-amide] to CC(C)(C)CS(=O)(=O)N1CCC(O)(C(=O)Nc2ccc(OC(F)(F)F)cc2)CC1 [Example 55, 1-(2,2-Dimethyl-propane-1-sulfonyl)-4-hydroxy-piperidine-4-carboxylic acid (4-trifluoromethoxy-phenyl)-amide], the pIC50 rises from 6.14 to 6.48 (0.34 log units).

First: CC(C)c1ccc(NC(=O)C2(N)CCN(Cc3ccc(C(F)(F)F)cc3)CC2)cc1 [Example 112, 4-Amino-1-(4-trifluoromethyl-benzyl)-piperidine-4-carboxylic acid (4-isopropyl-phenyl)-amide; hydrochloride]
Second: CC(C)c1ccc(NC(=O)C2(N)CCN(S(=O)(=O)c3ccccc3F)CC2)cc1 [Example 118, 4-Amino-1-(2-fluoro-benzenesulfonyl)-piperidine-4-carboxylic acid (4-isopropyl-phenyl)-amide]
The pIC50 of the first is 0.88 log units lower: 6.52 for the first, 7.40 for the second. The second is the more potent here.

First: C=Cc1ccc(NC(=O)C2(N)CCN(S(=O)(=O)c3ccccc3Cl)CC2)cc1 [Example 100, 4-Amino-1-(2-chloro-benzenesulfonyl)-piperidine-4-carboxylic acid (4-vinyl-phenyl)-amide]
Second: CC(C)c1ccc(NC(=O)C2(N)CCN(S(=O)(=O)c3ccc(C(C)C)cc3)CC2)cc1 [Example 83, 4-Amino-1-(4-isopropyl-benzenesulfonyl)-piperidine-4-carboxylic acid (4-isopropyl-phenyl)-amide; hydrochloride]
The pIC50 of the first is 0.21 log units higher: 6.85 for the first, 6.64 for the second. The first is the more potent here.
